One experiment has as its target P300 (Homo sapiens, UniProt Q09472). In words: Immunoblotting of P300 protein levels in LNCaP or 22RV1 cells. It is filed as cell-based. Set-up: LNCaP or 22RV1 cells that express CBP/P300 proteins were treated with GNE-781 or the bivalent compounds; endogenous in cells; host or cells: LNCaP (clone FGC) or 22RV1 cells. The settings on record: read-out: Degradation (10 nM). How it is done:
Specific exemplary bivalent compounds were characterized in LNCaP or 22RV1 cells. LNCaP or 22RV1 cells that express CBP/P300 proteins were treated with GNE-781 or the bivalent compounds disclosed herein (P-001 to P-174) for indicated hours. Cells were collected, lysed and subject to immunoblotting using an antibody specific to P300 or CBP proteins. Tubulin or vinculin was included as the loading control. DMSO was used as the negative control.
Cultured cells or tissue chunks were washed with cold PBS once and lysed in cold RIPA buffer supplemented with protease inhibitors and phosphatase inhibitors (Beyotime Biotechnology). The solutions were then incubated at 4° C. for 30 minutes with gentle agitation to fully lyse cells. Cell lysates were centrifuged at 13,000 rpm for 10 minutes at 4° C. and pellets were discarded. Total protein concentrations in the lysates were determined by BCA assays (Beyotime Biotechnology). Cell lysates were mixed with Laemmli loading buffer to 1× and heated at 99° C. for 5 min. Proteins were resolved on SDS-PAGE and visualized by chemiluminescence. Images were taken by a ChemiDoc MP Imaging system (Bio-Rad). Protein bands were quantitated using the accompanied software provided by Bio-Rad.
In general terms: A western blot detects proteins with antibodies after separation by electrophoresis.

For the next experiment, the system named is LNCaP cells. In words: LNCaP cell viability assay (CellTiter-Glo). The experiment is classed as cell-based. The following applies: for IC50: Homo sapiens, 72 h, LNCaP prostate cancer cell viability inhibition, 3 days. How it is done: LNCaP cells seeded in 96-well plates were treated with 10 μM GNE-781 or selected bivalent compounds, i.e. P-001, P-002, and P-019, following a 12-point 3-fold serial dilution. Three days after treatment, cell viability was determined using the CellTiter-Glo kit (Promega) following manufacturer's instructions. Cell viability was normalized to the mean values of 3 replicates of untreated cells. Dose-dependent response was analyzed following the least-squares non-linear regression method using the GraphPad Prism 5.0 software.
LNCaP cells were treated with GNE-781 or selected bivalent compounds for 3 days at indicated concentrations following a 3-fold serial dilution.
Cells were seeded at a density of 5000 cells per well in 96-well assay plates and treated with test compounds following a 12-point 3-fold serial dilution. Three days later, cell viability was determined using the CellTiter-Glo assay kit according to the manufacturer's instructions. The dose-response curves were determined and IC50 values were calculated using the GraphPad Prism software following a nonlinear regression (least squares fit) method.
(Cellular ATP, detected with luciferase, serves as a proxy for viable cell number.)

Setting [1] is: percentage of inhibition of p300 at 10 nM (Table 2).
Where [2] appears, read: percentage of inhibition of p300 at 10 nM (Table 3).

Where two headings read alike, the source gives them in different places.

Usually IC50 stands for the concentration needed to halve the response being measured. Low values mean greater potency in that assay, high ones weaker potency in that assay.

P300, sequence (Q09472 whole entry): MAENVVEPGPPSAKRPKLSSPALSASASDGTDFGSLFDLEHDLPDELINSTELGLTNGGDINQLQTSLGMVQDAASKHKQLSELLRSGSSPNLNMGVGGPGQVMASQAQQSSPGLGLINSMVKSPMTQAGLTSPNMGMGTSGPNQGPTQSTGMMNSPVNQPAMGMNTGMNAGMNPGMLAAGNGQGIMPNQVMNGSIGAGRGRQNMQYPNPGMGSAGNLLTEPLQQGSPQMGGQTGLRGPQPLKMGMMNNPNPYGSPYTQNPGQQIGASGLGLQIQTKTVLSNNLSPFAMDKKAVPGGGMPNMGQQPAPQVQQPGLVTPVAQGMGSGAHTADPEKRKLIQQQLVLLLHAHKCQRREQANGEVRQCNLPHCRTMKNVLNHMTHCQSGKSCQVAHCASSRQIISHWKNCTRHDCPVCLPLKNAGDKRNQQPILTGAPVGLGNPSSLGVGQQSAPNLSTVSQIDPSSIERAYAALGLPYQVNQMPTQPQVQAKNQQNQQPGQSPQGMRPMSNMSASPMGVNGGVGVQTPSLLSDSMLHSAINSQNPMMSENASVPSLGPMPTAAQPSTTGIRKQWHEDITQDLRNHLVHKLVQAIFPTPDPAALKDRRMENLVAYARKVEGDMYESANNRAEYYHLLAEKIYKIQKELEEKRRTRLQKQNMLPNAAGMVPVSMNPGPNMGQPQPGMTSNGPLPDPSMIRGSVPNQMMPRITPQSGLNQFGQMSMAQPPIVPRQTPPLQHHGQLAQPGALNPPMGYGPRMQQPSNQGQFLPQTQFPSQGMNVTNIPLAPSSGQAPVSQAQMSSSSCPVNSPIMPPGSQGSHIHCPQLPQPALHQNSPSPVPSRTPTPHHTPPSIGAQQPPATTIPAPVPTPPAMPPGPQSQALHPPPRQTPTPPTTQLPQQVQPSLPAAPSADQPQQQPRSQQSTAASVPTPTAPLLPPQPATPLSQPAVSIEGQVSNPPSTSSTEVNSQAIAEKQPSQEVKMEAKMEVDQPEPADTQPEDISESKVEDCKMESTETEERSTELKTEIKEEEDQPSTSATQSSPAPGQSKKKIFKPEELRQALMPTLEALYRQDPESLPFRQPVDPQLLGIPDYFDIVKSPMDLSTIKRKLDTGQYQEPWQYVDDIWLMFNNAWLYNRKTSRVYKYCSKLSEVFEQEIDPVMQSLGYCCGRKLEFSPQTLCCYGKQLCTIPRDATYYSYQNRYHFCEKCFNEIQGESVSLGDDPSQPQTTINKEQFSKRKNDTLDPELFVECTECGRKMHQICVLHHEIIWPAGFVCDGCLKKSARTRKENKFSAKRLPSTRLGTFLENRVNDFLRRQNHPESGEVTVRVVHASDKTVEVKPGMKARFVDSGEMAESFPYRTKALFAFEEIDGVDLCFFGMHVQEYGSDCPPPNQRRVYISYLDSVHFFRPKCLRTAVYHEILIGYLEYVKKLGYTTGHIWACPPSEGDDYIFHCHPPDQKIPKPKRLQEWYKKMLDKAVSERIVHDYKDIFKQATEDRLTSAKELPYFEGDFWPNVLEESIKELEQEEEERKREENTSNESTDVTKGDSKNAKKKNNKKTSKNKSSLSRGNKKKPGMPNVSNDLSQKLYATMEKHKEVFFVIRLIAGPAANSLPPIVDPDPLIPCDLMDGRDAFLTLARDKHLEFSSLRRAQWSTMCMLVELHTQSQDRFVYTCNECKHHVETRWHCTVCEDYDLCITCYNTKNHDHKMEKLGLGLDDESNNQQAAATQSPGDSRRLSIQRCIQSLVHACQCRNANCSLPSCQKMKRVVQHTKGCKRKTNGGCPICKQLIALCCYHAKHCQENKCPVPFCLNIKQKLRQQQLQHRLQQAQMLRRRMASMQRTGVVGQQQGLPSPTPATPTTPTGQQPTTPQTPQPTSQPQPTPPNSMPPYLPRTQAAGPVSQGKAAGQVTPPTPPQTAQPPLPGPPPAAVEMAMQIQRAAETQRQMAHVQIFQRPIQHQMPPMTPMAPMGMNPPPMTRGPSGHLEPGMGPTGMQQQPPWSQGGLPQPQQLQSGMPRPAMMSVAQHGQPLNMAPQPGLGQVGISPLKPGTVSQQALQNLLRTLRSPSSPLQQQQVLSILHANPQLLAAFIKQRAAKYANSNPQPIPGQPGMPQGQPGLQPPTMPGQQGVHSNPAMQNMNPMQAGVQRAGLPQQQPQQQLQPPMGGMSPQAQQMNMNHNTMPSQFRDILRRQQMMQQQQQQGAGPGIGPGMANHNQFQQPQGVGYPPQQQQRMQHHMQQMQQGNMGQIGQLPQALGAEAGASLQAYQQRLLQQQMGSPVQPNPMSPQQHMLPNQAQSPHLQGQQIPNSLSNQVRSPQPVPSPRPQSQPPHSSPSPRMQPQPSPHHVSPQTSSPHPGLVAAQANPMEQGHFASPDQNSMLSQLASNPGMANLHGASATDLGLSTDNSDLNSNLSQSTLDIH

As to `CNC(=O)N1CCc2c(c(N3CCCc4cc(-c5cnn(C)c5)c(C(F)F)cc43)nn2C2CCN(C(=O)CNc3ccc4c(c3)C(=O)N(C3CCC(=O)NC3=O)C4=O)CC2)C1` (centres unmarked) [P-001, 3-(7-(Difluoromethyl)-6-(1-methyl-1H-pyrazol-4-yl)-3,4-dihydroquinolin-1(2H)-yl)-1-(1-((2-(2,6-dioxopiperidin-3-yl)-1,3-dioxoisoindolin-5-yl)glycyl)piperidin-4-yl)-N-methyl-1,4,6,7-tetrahydro-5H-pyrazolo[4,3-c]pyridine-5-carboxamide], at P300 (setting [1]), the inhibition at 0.01 µM fell in the range of 50 to 80%. Further, half-maximal inhibition with LNCaP cells (CellTiter-Glo (Table 2)) (IC50) required 185 nM. The “viability of LNCaP cells” value in the experiment on LNCaP cells (from 10 μM, 12-point 3-fold serial dilution, 3 days (FIG. 4)) is on record as “dose-dependently suppressed viability”.

Regarding `CC(=O)N1CCc2c(c(N3CCCc4cc(-c5cnn(C)c5)c(C(F)F)cc43)nn2C2CCN(C(=O)CCCCCCCCNc3ccc4c(c3)n(C)c(=O)n4C3CCC(=O)NC3=O)CC2)C1` (centres unmarked) [P-162, 3-(5-((9-(4-(5-acetyl-3-(7-(difluoromethyl)-6-(1-methyl-1H-pyrazol-4-yl)-3,4-dihydroquinolin-1(2H)-yl)-4,5,6,7-tetrahydro-1H-pyrazolo[4,3-c]pyridin-1-yl)piperidin-1-yl)-9-oxononyl)amino)-3-methyl-2-oxo-2,3-dihydro-1H-benzo[d]imidazol-1-yl)piperidine-2,6-dione], the inhibition at 0.01 µM at P300 (setting [2]) was over 80%. The same molecule returned an IC50 in the experiment with LNCaP cells (CellTiter-Glo (Table 3)) of 0.3 nM.

For `CNC(=O)N1CCc2c(c(N3CCCc4cc(-c5cnn(CC(=O)NCCCCCCCNc6ccc7c(c6)C(=O)N(C6CCC(=O)NC6=O)C7=O)c5)c(C(F)F)cc43)nn2C2CCOCC2)C1` (centres unmarked) [P-026, 3-(7-(difluoromethyl)-6-(1-(2-((7-((2-(2,6-dioxopiperidin-3-yl)-1,3-dioxoisoindolin-5-yl)amino)heptyl)amino)-2-oxoethyl)-1H-pyrazol-4-yl)-3,4-dihydroquinolin-1(2H)-yl)-N-methyl-1-(tetrahydro-2H-pyran-4-yl)-1,4,6,7-tetrahydro-5H-pyrazolo[4,3-c]pyridine-5-carboxamide], the inhibition at 0.01 µM at P300 (setting [1]) was over 80%. In the experiment with LNCaP cells (CellTiter-Glo (Table 2)), this molecule had a half-inhibitory concentration (IC50) of 3.2 nM.

Turning to `CC(=O)N1CCc2c(c(N3CCCc4cc(-c5cnn(C)c5)c(C(F)F)cc43)nn2C2CCN(C(=O)CCC3CN(Cc4cccc5c4C(=O)N(C4CCC(=O)NC4=O)C5=O)C3)CC2)C1` (centres unmarked) [P-156, 4-((3-(3-(4-(5-Acetyl-3-(7-(difluoromethyl)-6-(1-methyl-1H-pyrazol-4-yl)-3,4-dihydroquinolin-1(2H)-yl)-4,5,6,7-tetrahydro-1H-pyrazolo[4,3-c]pyridin-1-yl)piperidin-1-yl)-3-oxopropyl)azetidin-1-yl)methyl)-2-(2,6-dioxopiperidin-3-yl)isoindoline-1,3-dione], the inhibition at 0.01 µM on P300 (setting [2]) was under 20%. In the experiment with LNCaP cells (CellTiter-Glo (Table 3)), the concentration for half-maximal inhibition (IC50) is over 500 nM.

Regarding `CNC(=O)N1CCc2c(c(N3CCCc4cc(-c5cnn(CC(=O)NCCOCCOCCOCCOCCNc6ccc7c(c6)C(=O)N(C6CCC(=O)NC6=O)C7=O)c5)c(C(F)F)cc43)nn2C2CCOCC2)C1` (centres unmarked) [P-031, 3-(7-(Difluoromethyl)-6-(1-(17-((2-(2,6-dioxopiperidin-3-yl)-1,3-dioxoisoindolin-5-yl)amino)-2-oxo-6,9,12,15-tetraoxa-3-azaheptadecyl)-1H-pyrazol-4-yl)-3,4-dihydroquinolin-1(2H)-yl)-N-methyl-1-(tetrahydro-2H-pyran-4-yl)-1,4,6,7-tetrahydro-5H-pyrazolo[4,3-c]pyridine-5-carboxamide], the inhibition at 0.01 µM at P300 (setting [1]) is under 20%. This molecule also showed a 50% inhibitory concentration (IC50) with LNCaP cells (CellTiter-Glo (Table 2)) of 566 nM.

As to `CNC(=O)N1CCc2c(c(N3CCCc4cc(-c5cnn(CC(=O)NCCCCCCCCNc6ccc7c(c6)C(=O)N(C6CCC(=O)NC6=O)C7=O)c5)c(C(F)F)cc43)nn2C2CCOCC2)C1` (centres unmarked) [P-027, 3-(7-(difluoromethyl)-6-(1-(2-((8-((2-(2,6-dioxopiperidin-3-yl)-1,3-dioxoisoindolin-5-yl)amino)octyl)amino)-2-oxoethyl)-1H-pyrazol-4-yl)-3,4-dihydroquinolin-1(2H)-yl)-N-methyl-1-(tetrahydro-2H-pyran-4-yl)-1,4,6,7-tetrahydro-5H-pyrazolo[4,3-c]pyridine-5-carboxamide], on P300 (setting [1]), the inhibition at 0.01 µM was over 80%. In the experiment with LNCaP cells (CellTiter-Glo (Table 2)), this molecule returned a concentration for half-maximal inhibition (IC50) of 2.5 nM.

On to `CNC(=O)N1CCc2c(c(N3CCCc4cc(-c5cnn(C)c5)c(C(F)F)cc43)nn2C2CCN(C(=O)CCOCCOCCOCCOCCNc3ccc4c(c3)C(=O)N(C3CCC(=O)NC3=O)C4=O)CC2)C1` (centres unmarked) [P-011, 3-(7-(Difluoromethyl)-6-(1-methyl-1H-pyrazol-4-yl)-3,4-dihydroquinolin-1(2H)-yl)-1-(1-(1-((2-(2,6-dioxopiperidin-3-yl)-1,3-dioxoisoindolin-5-yl)amino)-3,6,9,12-tetraoxapentadecan-15-oyl)piperidin-4-yl)-N-methyl-1,4,6,7-tetrahydro-5H-pyrazolo[4,3-c]pyridine-5-carboxamide], for which the inhibition at 0.01 µM on P300 (setting [1]) was 20 to 50%. This molecule also yielded an IC50 in the experiment on LNCaP cells (CellTiter-Glo (Table 2)) of 163 nM.

For `CC(=O)N1CCc2c(c(N3CCCc4cc(-c5cnn(C)c5)c(C(F)F)cc43)nn2C2CCN(C(=O)CN3CCC(CNc4cccc5c4C(=O)N(C4CCC(=O)NC4=O)C5=O)CC3)CC2)C1` (centres unmarked) [P-123, 4-(((1-(2-(4-(5-Acetyl-3-(7-(difluoromethyl)-6-(1-methyl-1H-pyrazol-4-yl)-3,4-dihydroquinolin-1(2H)-yl)-4,5,6,7-tetrahydro-1H-pyrazolo[4,3-c]pyridin-1-yl)piperidin-1-yl)-2-oxoethyl)piperidin-4-yl)methyl)amino)-2-(2,6-dioxopiperidin-3-yl)isoindoline-1,3-dione], the inhibition at 0.01 µM at P300 (setting [2]) was over 80%. In addition, in the experiment on LNCaP cells (CellTiter-Glo (Table 3)), the IC50 is 20.3 nM.

For `CNC(=O)N1CCc2c(c(N3CCCc4cc(-c5cnn(C)c5)c(C(F)F)cc43)nn2C2CCN(C(=O)CCOCCOCCOCCNc3cccc4c3C(=O)N(C3CCC(=O)NC3=O)C4=O)CC2)C1` (centres unmarked) [P-053, 3-(7-(Difluoromethyl)-6-(1-methyl-1H-pyrazol-4-yl)-3,4-dihydroquinolin-1(2H)-yl)-1-(1-(3-(2-(2-(2-((2-(2,6-dioxopiperidin-3-yl)-1,3-dioxoisoindolin-4-yl)amino)ethoxy)ethoxy)ethoxy)propanoyl)piperidin-4-yl)-N-methyl-1,4,6,7-tetrahydro-5H-pyrazolo[4,3-c]pyridine-5-carboxamide], the inhibition at 0.01 µM at P300 (setting [2]) is 20 to 50%. This molecule yielded a 50% inhibitory concentration (IC50) in the experiment with LNCaP cells (CellTiter-Glo (Table 3)) of 76.5 nM.

For `CNC(=O)N1CCc2c(c(N3CCCc4cc(-c5cnn(C)c5)c(C(F)F)cc43)nn2C2CCN(C(=O)CCNc3cccc4c3C(=O)N(C3CCC(=O)NC3=O)C4=O)CC2)C1` (centres unmarked) [P-014, 3-(7-(Difluoromethyl)-6-(1-methyl-1H-pyrazol-4-yl)-3,4-dihydroquinolin-1(2H)-yl)-1-(1-(3-((2-(2,6-dioxopiperidin-3-yl)-1,3-dioxoisoindolin-4-yl)amino)propanoyl)piperidin-4-yl)-N-methyl-1,4,6,7-tetrahydro-5H-pyrazolo[4,3-c]pyridine-5-carboxamide], the inhibition at 0.01 µM on P300 (setting [1]) was under 20%. Also, the half-maximal inhibitory concentration (IC50) in the experiment on LNCaP cells (CellTiter-Glo (Table 2)) is over 10000 nM.

On to `CC(=O)N1CCc2c(c(N3CCCc4cc(-c5cnn(C)c5)c(C(F)F)cc43)nn2C2CCN(Cc3ccc(COc4cccc5c4CN(C4CCC(=O)NC4=O)C5=O)cc3)CC2)C1` (centres unmarked) [P-166, 3-(4-((4-((4-(5-acetyl-3-(7-(difluoromethyl)-6-(1-methyl-1H-pyrazol-4-yl)-3,4-dihydroquinolin-1(2H)-yl)-4,5,6,7-tetrahydro-1H-pyrazolo[4,3-c]pyridin-1-yl)piperidin-1-yl)methyl)benzyl)oxy)-1-oxoisoindolin-2-yl)piperidine-2,6-dione], for which the inhibition at 0.01 µM on P300 (setting [2]) was over 80%. In the experiment with LNCaP cells (CellTiter-Glo (Table 3)), this molecule came in with an IC50 of 0.3 nM.

These data come from US20230073777A1, “CYCLIC-AMP RESPONSE ELEMENT BINDING PROTEIN (CBP) AND/OR ADENOVIRAL E1A BINDING PROTEIN OF 300 KDA (P300) DEGRADATION COMPOUNDS AND METHODS OF USE” (CULLGEN (SHANGHAI), INC., priority 2019, published 2023).
